Article PMC9052873 (Journal of medicinal chemistry, 2020)
Where two headings read alike, the source gives them in different places.

Columns and labels:
[1] = target: PNMT; conditions: read-out: Ki^PEA; ref [85]; cited from earlier work
[2] = target: T1, bovine PNMT (Bos taurus, UniProt P10938); conditions: read-out: PNMT Kis^PEA; bovine enzyme; ref [16]; cited from earlier work
T1 sequence (P10938 1-283): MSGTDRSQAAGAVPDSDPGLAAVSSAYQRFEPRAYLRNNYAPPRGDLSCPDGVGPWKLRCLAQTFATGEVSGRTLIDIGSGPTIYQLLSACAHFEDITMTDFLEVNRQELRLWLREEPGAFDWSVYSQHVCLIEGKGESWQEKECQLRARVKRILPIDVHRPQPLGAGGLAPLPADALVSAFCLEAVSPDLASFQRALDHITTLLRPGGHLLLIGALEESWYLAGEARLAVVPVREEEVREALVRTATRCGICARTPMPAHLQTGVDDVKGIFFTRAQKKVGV

[3] = target: T2, human PNMT (hPNMT) (Homo sapiens, UniProt P11086); experiment: radiochemical assay for hPNMT inhibitory potency
T2 sequence (P11086 1-282): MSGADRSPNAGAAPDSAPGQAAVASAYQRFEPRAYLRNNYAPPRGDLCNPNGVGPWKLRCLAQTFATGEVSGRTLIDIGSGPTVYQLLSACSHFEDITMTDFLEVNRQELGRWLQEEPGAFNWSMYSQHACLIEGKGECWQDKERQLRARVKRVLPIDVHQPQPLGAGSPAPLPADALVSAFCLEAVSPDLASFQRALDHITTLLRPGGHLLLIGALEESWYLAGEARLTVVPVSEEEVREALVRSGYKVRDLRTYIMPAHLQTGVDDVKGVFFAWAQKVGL

[4] = target: T1, bovine PNMT; experiment: PNMT inhibition, bovine enzyme; assay type: biochemical

In the case of `c1ccc2c(c1)CCNC2` [Compound 10, 1,2,3,4-tetrahydroisoquinoline], the Ki [1] is given as 10 µM.

In the case of `NC(=O)C1Cc2ccccc2CN1` (centres unmarked) [Compound 13], the Ki [2] is listed as 31 µM.

For `NCC1Cc2ccccc2CN1` (centres unmarked) [Compound 14], the “greater potency as an inhibitor of hPNMT than 13” value ([3]; 14 (aminomethyl) versus 13 (aminocarbonyl)) was “over 20 fold” and the Ki [4] was 1.4 µM.

With tris(hydroxymethyl)amino methane the “inhibition in PNMT assays” value ([3]; buffer component, prompted a switch to phosphate buffer) was “inhibition being observed”.
